Results reported in patent publication US5298523A, “Method for treating transplant patients using mycalamide compounds” (priority 1992, dated 1994).
Values after ≈ are worked out from the molar mass of the structure shown.

How the values were obtained:
[1] = tested on: two-way murine mixed lymphocyte response (C57BL/6J and BALB/c splenocytes); assay: Two-way murine mixed lymphocyte reaction (MLR), 3H-thymidine incorporation; format: cell-based
Procedure: (§1) Preparation of splenocyte cell suspensions. […] The resulting supernatant was then transferred to another sterile centrifuge tube, and the cell concentration adjusted to 2×10^6 cells/ml dilution with TCM.
Two way mixed lymphocyte reaction (MLR). The immunosuppressive properties of mycalamide A were evaluated using the two-way MLR, utilizing murine splenocytes and human PBL. For the murine MLR, splenocytes from C57Bl/6J and BALB/c mice were prepared as described above, and a volume of […] of each cell suspension was added together to test and control wells of microtiter plates. Wells containing 0.20 ml of each cell suspension alone served as controls.
Dilutions of the drug to be tested were prepared in absolute EtOH and further diluted to the appropriate concentration in TCM and added directly to the wells containing splenocyte combinations. Additional solvent (EtOH) control wells were also prepared by adding the equivalent percentage of EtOH to each culture well. Plates were incubated at 37° C. in a 5% CO2 humidified atmosphere for 88 hours. Following the incubation, 1.0 μCi of ^3 H-thymidine was added to each well, and the plates were returned to the incubator for 5 hours. The contents of each well were harvested onto glass-fiber filter strips, and the incorporation of ^3 H-thymidine was determined by a liquid scintillation counter. Similar conditions were utilized for MLR cultures using human peripheral blood lymphocytes prepared from unrelated donors as described above, with the exception that the initial incubation and subsequent ^3 H-thymidine pulse times were different (114 hours for initial incubation followed by a 6-hour incubation with ^3 H-thymidine). Plates were harvested in a similar manner, and ^3 H-thymidine incorporation determined as described above.

[2] = tested on: T cells; assay: T cell viability by trypan blue exclusion; format: cell-based, murine
Procedure: (§2) Determination of mycalamide A toxicity. The toxicity of mycalamide A on murine splenocytes and human PBL was determined using a colorimetric assay, based on the ability of viable cells to convert the colorless tetrazolium salt, 3-(4,5-dimethylthiazol-2yl)-2,5-diphenyl tetrazolium bromide (MTT) to a colored formazan product and trypan blue exclusion. For the colorimetric assay, a volume of 0.075 ml of an MTT solution (550 μg/ml of MTT in TCM) was added to test and control wells containing one of the populations of splenocytes or test wells and incubated for 5-6 hours following the initial incubation period. Microtiter plates were centrifuged at 100× g, supernatants carefully removed, and a volume of 0.20 ml of isopropyl alcohol was added to each well to dissolve the formazan crystals. The absorbance at 570 nm was determined for each well using an ELISA plate reader. […] As an additional parameter of toxicity, wells containing cultured lymphocytes with various dilutions of mycalamide A were examined with trypan blue, and the percentage of dye-excluding (viable) cells was determined.
(§3) Compounds were added as indicated. Cells were harveste
(§4) Each data point represents the mean value o

[3] = T cell viability by trypan blue exclusion; format: cell-based, murine; conditions: t cells, read-out: percentage of trypan blue-positive cells
Procedure: as §2, §3, §4

[4] = Lymphocyte viability assay (LCV, MTT) on human PBL; format: cell-based; conditions: for viability: human MLR, MTT
Procedure: Preparation of human peripheral blood leukocyte (PBL) suspensions. Human peripheral blood suspensions were prepared from Leukotrap blood filters as follows: Leukotrap filters containing processed leukocytes from random, unrelated blood donors were obtained from the Indian River Blood Bank (Vero Beach, Fla.). Buffy-coat blood cell suspensions were recovered by reverse-flow phosphate-buffered saline purging and centrifugation for 15 minutes at 475× g. Buffy coats were removed, and 5 ml of the suspension was layered onto 5 ml of Histopaque gradient material. The Histopaque gradients were centrifuged at 475× g for 30 minutes. Lymphocytes were removed from the Histopaque-medium interface, and washed twice with 10 ml of PBS (Dulbecco's phosphate-buffered saline without CaCl2 and MgCl2.6H2 O). The final cell pellet was resuspended in TCM, and the cell concentration adjusted to 2×10^6 cells/ml.
as §2

[5] = tested on: murine splenocytes; assay: Lymphocyte viability assay (LCV, MTT) on murine splenocytes; format: cell-based; conditions: mitogen study, in words
Procedure: as §1, §2

[6] = as above; format: cell-based; conditions: mouse, splenocytes
Procedure: as §1, §2

Structure (SMILES): C=C1CC(OC)(C(O)C(=O)NC2OCOC3C2OC(CC(O)CO)C(C)(C)C3OC)OC(C)C1C (centres unmarked) [Mycalamide A, mycalamide A]
- activity at 5 µg/mL ([1]; Mus musculus, Splenocyte, 5.0 × 10^0 μg/ml, read-out: % of Positive Control MLR): 0%
- activity at 50 µg/mL ([1]; Mus musculus, Splenocyte, 5.0 × 10^1 μg/ml, read-out: % of Positive Control MLR): 0%
- activity at 500 µg/mL ([1]; Mus musculus, Splenocyte, 5.0 × 10^2 μg/ml, read-out: % of Positive Control MLR): 0%
- activity at 0.5 µg/mL ([1]; Mus musculus, Splenocyte, 5.0 × 10^-1 μg/ml, read-out: % of Positive Control MLR): 0%
- activity at 0.05 µg/mL ([1]; Mus musculus, Splenocyte, 5.0 × 10^-2 μg/ml, read-out: % of Positive Control MLR): 0%
- activity at 0.005 µg/mL ([1]; Mus musculus, Splenocyte, 5.0 × 10^-3 μg/ml, read-out: % of Positive Control MLR): 0%
- activity at 0.0005 µg/mL ([1]; Mus musculus, Splenocyte, 5.0 × 10^-4 μg/ml, read-out: % of Positive Control MLR): 0%
- activity at 50 pg/mL ([1]; Mus musculus, Splenocyte, 5.0 × 10^-5 μg/ml, read-out: % of Positive Control MLR): 0%
- activity at 5 pg/mL ([1]; Mus musculus, Splenocyte, 5.0 × 10^-6 μg/ml, read-out: % of Positive Control MLR): 0%
- activity at 500 fg/mL ([1]; Mus musculus, Splenocyte, 5.0 × 10^-7 μg/ml, read-out: % of Positive Control MLR): 0%
- activity at 50 fg/mL ([1]; Mus musculus, Splenocyte, 5.0 × 10^-8 μg/ml, read-out: % of Positive Control MLR): 0%
- activity at 5 fg/mL ([1]; Mus musculus, Splenocyte, 5.0 × 10^-9 μg/ml, read-out: % of Positive Control MLR): 0%
- activity at 5e-10 µg/mL ([1]; Mus musculus, Splenocyte, 5.0 × 10^-10 μg/ml, read-out: % of Positive Control MLR): 0%
- activity at 5e-11 µg/mL ([1]; Mus musculus, Splenocyte, 5.0 × 10^-11 μg/ml, read-out: % of Positive Control MLR): 0%
- activity at 5e-12 µg/mL ([1]; Mus musculus, Splenocyte, 5.0 × 10^-12 μg/ml, read-out: % of Positive Control MLR): 0%
- activity at 5e-13 µg/mL ([1]; Mus musculus, Splenocyte, 5.0 × 10^-13 μg/ml, read-out: % of Positive Control MLR): 0%
- activity at 5e-14 µg/mL ([1]; Mus musculus, Splenocyte, 5.0 × 10^-14 μg/ml, read-out: % of Positive Control MLR): 0%
- activity at 5e-15 µg/mL ([1]; Mus musculus, Splenocyte, 5.0 × 10^-15 μg/ml, read-out: % of Positive Control MLR): 0%
- activity at 5e-16 µg/mL ([1]; Mus musculus, Splenocyte, 5.0 × 10^-16 μg/ml, read-out: % of Positive Control MLR): 0%
- activity at 5e-17 µg/mL ([1]; Mus musculus, Splenocyte, 5.0 × 10^-17 μg/ml, read-out: % of Positive Control MLR): 85%
- activity at 5e-18 µg/mL ([1]; Mus musculus, Splenocyte, 5.0 × 10^-18 μg/ml, read-out: % of Positive Control MLR): 82%
- activity at 5e-19 µg/mL ([1]; Mus musculus, Splenocyte, 5.0 × 10^-19 μg/ml, read-out: % of Positive Control MLR): 128%
- range of concentrations that suppressed the MLR ([1]; murine): 5×10^2 to 5×10^-16 μg/ml
- number of cells excluding trypan blue ([2]; 1 pM, Experiment 1, 20 hours): 1.39 × 10^6 cells
- number of cells excluding trypan blue ([2]; 1 pM, Experiment 2, 20 hours): 1.45 × 10^6 cells
- percentage of trypan blue-positive cells ([2]; 1 pM, Experiment 2, 20 hours): < 2%
- number of cells excluding trypan blue ([2]; 5 pM, Experiment 1, 20 hours): 1.41 × 10^6 cells
- number of cells excluding trypan blue ([2]; 5 pM, Experiment 2, 20 hours): 1.68 × 10^6 cells
- percentage of trypan blue-positive cells ([2]; 5 pM, Experiment 2, 20 hours): < 2%
- number of cells excluding trypan blue ([2]; 10 pM, Experiment 2, 20 hours): 1.49 × 10^6 cells
- effect on T cell viability ([2]; trypan blue exclusion, in words): did not significantly affect the cell viability
- cytotoxicity at 20 h, 1e-06 µM ([3]; 1 pM, Experiment 1, 20 hours): < 2%
- cytotoxicity at 20 h, 5e-06 µM ([3]; 5 pM, Experiment 1, 20 hours): < 2%
- cytotoxicity at 20 h, 1e-05 µM ([3]; 10 pM, Experiment 2, 20 hours): < 2%
- viability ([4]; 5.0 × 10^-1 μg/ml): 42%
- viability ([4]; 5.0 × 10^-2 μg/ml): 52%
- viability ([4]; 5.0 × 10^-3 μg/ml): 46%
- viability ([4]; 5.0 × 10^-4 μg/ml): 128%
- viability ([4]; 5.0 × 10^-5 μg/ml): 111%
- viability ([4]; 5.0 × 10^-6 μg/ml): 114%
- viability ([4]; 5.0 × 10^-7 μg/ml): 116%
- CC50 ([4]; read-out: TC50 (LCV)): 0.083 µg/mL (≈ 0.165 µM)
- toxicity by LCV assay ([5]; 5×10^-5 μg/ml): no toxicity
- toxicity to the cells ([5]; greater than 5×10^-5 μg/ml): toxic to the cells
- viability ([6]; MLR, 5.0 × 10^0 μg/ml, MTT, read-out: % Viability (LCV)): 0%
- viability ([6]; MLR, 5.0 × 10^1 μg/ml, MTT, read-out: % Viability (LCV)): 0%
- viability ([6]; MLR, 5.0 × 10^2 μg/ml, MTT, read-out: % Viability (LCV)): 0%
- viability ([6]; MLR, 5.0 × 10^-1 μg/ml, MTT, read-out: % Viability (LCV)): 55%
- viability ([6]; MLR, 5.0 × 10^-2 μg/ml, MTT, read-out: % Viability (LCV)): 79%
- viability ([6]; MLR, 5.0 × 10^-3 μg/ml, MTT, read-out: % Viability (LCV)): 66%
- viability ([6]; MLR, 5.0 × 10^-4 μg/ml, MTT, read-out: % Viability (LCV)): 62%
- viability ([6]; MLR, 5.0 × 10^-5 μg/ml, MTT, read-out: % Viability (LCV)): 63%
- viability ([6]; MLR, 5.0 × 10^-6 μg/ml, MTT, read-out: % Viability (LCV)): 83%
- viability ([6]; MLR, 5.0 × 10^-7 μg/ml, MTT, read-out: % Viability (LCV)): 71%
- viability ([6]; MLR, 5.0 × 10^-8 μg/ml, MTT, read-out: % Viability (LCV)): 100%
- viability ([6]; MLR, 5.0 × 10^-9 μg/ml, MTT, read-out: % Viability (LCV)): > 99%
- viability ([6]; MLR, 5.0 × 10^-10 μg/ml, MTT, read-out: % Viability (LCV)): > 99%
- viability ([6]; MLR, 5.0 × 10^-11 μg/ml, MTT, read-out: % Viability (LCV)): > 99%
- viability ([6]; MLR, 5.0 × 10^-12 μg/ml, MTT, read-out: % Viability (LCV)): > 99%
- viability ([6]; MLR, 5.0 × 10^-13 μg/ml, MTT, read-out: % Viability (LCV)): > 99%
- viability ([6]; MLR, 5.0 × 10^-14 μg/ml, MTT, read-out: % Viability (LCV)): > 99%
- viability ([6]; MLR, 5.0 × 10^-15 μg/ml, MTT, read-out: % Viability (LCV)): > 99%
- viability ([6]; MLR, 5.0 × 10^-16 μg/ml, MTT, read-out: % Viability (LCV)): > 99%
- viability ([6]; MLR, 5.0 × 10^-17 μg/ml, MTT, read-out: % Viability (LCV)): > 99%
- viability ([6]; MLR, 5.0 × 10^-18 μg/ml, MTT, read-out: % Viability (LCV)): > 99%
- viability ([6]; MLR, 5.0 × 10^-19 μg/ml, MTT, read-out: % Viability (LCV)): > 99%
- viability ([6]; mitogen study, 5.0 × 10^0 μg/ml, read-out: LCV, % viability): 1%
- viability ([6]; mitogen study, 5.0 × 10^1 μg/ml, read-out: LCV, % viability): 2%
- viability ([6]; mitogen study, 5.0 × 10^2 μg/ml, read-out: LCV, % viability): 3%
- viability ([6]; mitogen study, 5.0 × 10^-1 μg/ml, read-out: LCV, % viability): 4%
- viability ([6]; mitogen study, 5.0 × 10^-2 μg/ml, read-out: LCV, % viability): 3%
- viability ([6]; mitogen study, 5.0 × 10^-3 μg/ml, read-out: LCV, % viability): 3%
- viability ([6]; mitogen study, 5.0 × 10^-4 μg/ml, read-out: LCV, % viability): 4%
- viability ([6]; mitogen study, 5.0 × 10^-5 μg/ml, read-out: LCV, % viability): 180%
